Assay results from PubChem BioAssay (NCI).
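Five compound concentrations were applied to cells in 96-well plates for 48 hours; endpoints were derived by simple linear interpolation of the resulting dose-response curve. GI50: concentration for 50% inhibition of growth. TGI marks complete inhibition of growth.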

Key:
Assay in all cases: NCI anticancer screen, dose series, 48 h
786-0 renal = tested on: 786-0 renal
A498 renal = tested on: A498 renal
A549 NSCLC = tested on: A549 NSCLC
ACHN renal = tested on: ACHN renal
BT-549 breast = tested on: BT-549 breast
CAKI-1 renal = tested on: CAKI-1 renal
CCRF-CEM leukemia = tested on: CCRF-CEM leukemia
COLO 205 colon = tested on: COLO 205 colon
DU-145 prostate = tested on: DU-145 prostate
EKVX NSCLC = tested on: EKVX NSCLC
HCC-2998 colon = tested on: HCC-2998 colon
HCT-116 colon = tested on: HCT-116 colon
HCT-15 colon = tested on: HCT-15 colon
HL-60(TB) leukemia = tested on: HL-60(TB) leukemia
HOP-62 NSCLC = tested on: HOP-62 NSCLC
HOP-92 NSCLC = tested on: HOP-92 NSCLC
HS 578T breast = tested on: HS 578T breast
HT29 colon = tested on: HT29 colon
IGROV1 ovarian = tested on: IGROV1 ovarian
K-562 leukemia = tested on: K-562 leukemia
KM12 colon = tested on: KM12 colon
LOX IMVI melanoma = tested on: LOX IMVI melanoma
M14 melanoma = tested on: M14 melanoma
MALME-3M melanoma = tested on: MALME-3M melanoma
MCF7 breast = tested on: MCF7 breast
MDA-MB-231 breast = tested on: MDA-MB-231 breast
MDA-MB-435 = tested on: MDA-MB-435
MOLT-4 leukemia = tested on: MOLT-4 leukemia
NCI-H226 lung = tested on: NCI-H226 lung
NCI-H23 lung = tested on: NCI-H23 lung
NCI-H460 lung = tested on: NCI-H460 lung
NCI-H522 lung = tested on: NCI-H522 lung
NCI/ADR-RES ovarian = tested on: NCI/ADR-RES ovarian
OVCAR-3 ovarian = tested on: OVCAR-3 ovarian
OVCAR-4 ovarian = tested on: OVCAR-4 ovarian
OVCAR-5 ovarian = tested on: OVCAR-5 ovarian
OVCAR-8 ovarian = tested on: OVCAR-8 ovarian
PC-3 prostate = tested on: PC-3 prostate
RPMI-8226 leukemia = tested on: RPMI-8226 leukemia
RXF 393 renal = tested on: RXF 393 renal
SF-268 CNS = tested on: SF-268 CNS
SF-295 CNS = tested on: SF-295 CNS
SF-539 CNS = tested on: SF-539 CNS
SK-MEL-2 melanoma = tested on: SK-MEL-2 melanoma
SK-MEL-28 melanoma = tested on: SK-MEL-28 melanoma
SK-MEL-5 melanoma = tested on: SK-MEL-5 melanoma
SK-OV-3 ovarian = tested on: SK-OV-3 ovarian
SN12C renal = tested on: SN12C renal
SNB-19 CNS = tested on: SNB-19 CNS
SNB-75 CNS = tested on: SNB-75 CNS
SR leukemia = tested on: SR leukemia
SW-620 colon = tested on: SW-620 colon
T-47D breast = tested on: T-47D breast
TK-10 renal = tested on: TK-10 renal
U251 CNS = tested on: U251 CNS
UACC-257 melanoma = tested on: UACC-257 melanoma
UACC-62 melanoma = tested on: UACC-62 melanoma
UO-31 renal = tested on: UO-31 renal

With `O=C1NC(=O)/C(=C/C=C/c2ccccc2)S1` the GI50 (786-0 renal) was 0.366 µM, the TGI (786-0 renal) was 4.27 µM and the GI50 (A498 renal) was 0.373 µM. It also gave a TGI (A498 renal) of 18.8 µM, a GI50 (A549 NSCLC) of 11.1 µM and a TGI (A549 NSCLC) greater than 100 µM. It also gave a GI50 (ACHN renal) of 0.655 µM, a TGI (ACHN renal) greater than 37 µM and a GI50 (BT-549 breast) of 2.34 µM. It also gave a TGI (BT-549 breast) of 58.1 µM, a GI50 (CAKI-1 renal) of 0.46 µM and a TGI (CAKI-1 renal) of 8.86 µM. It also gave a GI50 (CCRF-CEM leukemia) of 2.01 µM, a TGI (CCRF-CEM leukemia) greater than 100 µM and a GI50 (COLO 205 colon) of 14.4 µM. For the same molecule, the TGI (COLO 205 colon) was greater than 48.3 µM, the GI50 (DU-145 prostate) was 3.76 µM and the TGI (DU-145 prostate) was 36.6 µM. It also gave a GI50 (EKVX NSCLC) of 6.1 µM, a TGI (EKVX NSCLC) greater than 100 µM and a GI50 (HCC-2998 colon) of 1.95 µM. For the same molecule, the TGI (HCC-2998 colon) was 11.1 µM, the GI50 (HCT-116 colon) was 2.36 µM and the TGI (HCT-116 colon) was 18.6 µM. For the same molecule, the GI50 (HCT-15 colon) was 9.3 µM, the TGI (HCT-15 colon) was 51.7 µM and the GI50 (HL-60(TB) leukemia) was 1.27 µM. It also gave a TGI (HL-60(TB) leukemia) of 9.58 µM, a GI50 (HOP-62 NSCLC) of 1.37 µM and a TGI (HOP-62 NSCLC) of 33.1 µM. For the same molecule, the GI50 (HOP-92 NSCLC) was 11.1 µM, the TGI (HOP-92 NSCLC) was greater than 81.1 µM and the GI50 (HS 578T breast) was 13.4 µM. It also gave a TGI (HS 578T breast) greater than 100 µM, a GI50 (HT29 colon) of 12.1 µM and a TGI (HT29 colon) greater than 100 µM. It also gave a GI50 (IGROV1 ovarian) of 12.2 µM, a TGI (IGROV1 ovarian) of 57.5 µM and a GI50 (K-562 leukemia) of 3.27 µM. It also gave a TGI (K-562 leukemia) greater than 100 µM, a GI50 (KM12 colon) of 8.25 µM and a TGI (KM12 colon) of 21.8 µM. It also gave a GI50 (LOX IMVI melanoma) of 0.999 µM, a TGI (LOX IMVI melanoma) of 14.7 µM and a GI50 (M14 melanoma) of 2.1 µM. For the same molecule, the TGI (M14 melanoma) was greater than 20.6 µM, the GI50 (MALME-3M melanoma) was 12.3 µM and the TGI (MALME-3M melanoma) was greater than 82.4 µM. For the same molecule, the GI50 (MCF7 breast) was 1.36 µM, the TGI (MCF7 breast) was greater than 100 µM and the GI50 (MDA-MB-231 breast) was 30.4 µM. It also gave a TGI (MDA-MB-231 breast) greater than 100 µM, a GI50 (MDA-MB-435) of 5.46 µM and a TGI (MDA-MB-435) greater than 78.7 µM. It also gave a GI50 (MOLT-4 leukemia) of 2.08 µM, a TGI (MOLT-4 leukemia) greater than 72 µM and a GI50 (NCI-H226 lung) of 14 µM. It also gave a TGI (NCI-H226 lung) greater than 80.8 µM, a GI50 (NCI-H23 lung) of 1.74 µM and a TGI (NCI-H23 lung) greater than 41.4 µM. It also gave a GI50 (NCI-H460 lung) of 2.83 µM, a TGI (NCI-H460 lung) of 13.8 µM and a GI50 (NCI-H522 lung) of 7.82 µM. It also gave a TGI (NCI-H522 lung) of 52.7 µM, a GI50 (NCI/ADR-RES ovarian) of 2.87 µM and a TGI (NCI/ADR-RES ovarian) greater than 100 µM. It also gave a GI50 (OVCAR-3 ovarian) of 2.88 µM, a TGI (OVCAR-3 ovarian) of 33.1 µM and a GI50 (OVCAR-4 ovarian) of 80.8 µM. The TGI (OVCAR-4 ovarian) was greater than 100 µM, the GI50 (OVCAR-5 ovarian) was 14.1 µM and the TGI (OVCAR-5 ovarian) was greater than 100 µM. It also gave a GI50 (OVCAR-8 ovarian) of 3.48 µM, a TGI (OVCAR-8 ovarian) greater than 100 µM and a GI50 (PC-3 prostate) of 19.4 µM. The TGI (PC-3 prostate) was greater than 100 µM, the GI50 (RPMI-8226 leukemia) was 3.67 µM and the TGI (RPMI-8226 leukemia) was greater than 96.5 µM. The GI50 (RXF 393 renal) was 4.95 µM, the TGI (RXF 393 renal) was 27.8 µM and the GI50 (SF-268 CNS) was 2.96 µM. It also gave a TGI (SF-268 CNS) greater than 70.2 µM, a GI50 (SF-295 CNS) of 0.576 µM and a TGI (SF-295 CNS) of 6.35 µM. The GI50 (SF-539 CNS) was 0.384 µM, the TGI (SF-539 CNS) was 3.16 µM and the GI50 (SK-MEL-2 melanoma) was 24.4 µM. The TGI (SK-MEL-2 melanoma) was greater than 79.3 µM, the GI50 (SK-MEL-28 melanoma) was 15.5 µM and the TGI (SK-MEL-28 melanoma) was 36 µM. For the same molecule, the GI50 (SK-MEL-5 melanoma) was 2.58 µM, the TGI (SK-MEL-5 melanoma) was 22.5 µM and the GI50 (SK-OV-3 ovarian) was 38.7 µM. For the same molecule, the TGI (SK-OV-3 ovarian) was greater than 100 µM, the GI50 (SN12C renal) was 2.05 µM and the TGI (SN12C renal) was greater than 100 µM. It also gave a GI50 (SNB-19 CNS) of 1.42 µM, a TGI (SNB-19 CNS) of 20.3 µM and a GI50 (SNB-75 CNS) of 5.25 µM. For the same molecule, the TGI (SNB-75 CNS) was 40.3 µM, the GI50 (SR leukemia) was 0.597 µM and the TGI (SR leukemia) was greater than 86.5 µM. The GI50 (SW-620 colon) was 11.2 µM, the TGI (SW-620 colon) was greater than 59.1 µM and the GI50 (T-47D breast) was 12.8 µM. The TGI (T-47D breast) was greater than 100 µM, the GI50 (TK-10 renal) was 28.6 µM and the TGI (TK-10 renal) was greater than 100 µM. The GI50 (U251 CNS) was 0.693 µM, the TGI (U251 CNS) was 18.1 µM and the GI50 (UACC-257 melanoma) was 5.43 µM. It also gave a TGI (UACC-257 melanoma) greater than 100 µM, a GI50 (UACC-62 melanoma) of 0.49 µM and a TGI (UACC-62 melanoma) of 27 µM. The GI50 (UO-31 renal) was 2.81 µM and the TGI (UO-31 renal) was 30.4 µM.
